Measured values from patent publication EP0117060A2, “Methods of screening and amplification in eukaryotic host cells, and nucleotide sequences and expression vectors for use therein” (GENENTECH, INC., priority 1983, dated 1984).

How the values were obtained:
Assay type in all cases: cell-based, Chinese hamster
[1] = tested on: CHO-DUX-B11 (dhfr-) cells transfected with pFD11 (pFD11.1); assay: Growth inhibition by MTX, 3 day cell count assay, pFD11 transfected clone; settings: Cricetulus griseus, 72 h; cells from the pFD11 transfected colony (pFD11.1), wild type DHFR plasmid; 3 days, cells counted; read-out: level of MTX which inhibits cell growth by 50 percent over the 3 day assay
Description: (§1) A deficiency of the wild type DHFR as a selectable marker in tissue culture systems is the relatively low degree of MTX resistance conferred upon the transfected cells by the transfected wild type enzyme expression plasmid. […] Individual colonies were isolated from pFR400 or pFDll transfected dhfr- cells and propagated in the absence of MTX. Equal amounts of cells from two clones and of CHO-Kl cells were trypsinized and split into 60 mm dishes. Various levels of MTX were added to each dish, the cells incubated for 3 days, and then counted.
(§2) The pFDll transfected cells were clearly less capable of growing in high levels of MTX than were the CHO-K1 (DHFR^+) cells grown under identical conditions. The level of MTX which inhibits cell growth by 50 percent over the 3 day assay was approximately 3 nM for cells derived from the pFDll transfected colony (pFD11.1) and was 20nM for CHO-K1 cells. In contrast to this, the colony (pFR400.1) isolated from the cells transfected with pFR400, was able to grow in extremely high levels of MTX. The 50 percent inhibition level for FR400.1 cells is approximately 3000 nM.

CHO-K1 cells = assay: Growth inhibition by MTX, 3 day cell count assay, untransformed wild type cells; settings: Cricetulus griseus, 72 h, CHO-K1 (DHFR+) cells, 3 days, cells counted, read-out: level of MTX which inhibits cell growth by 50 percent over the 3 day assay
Description: as §1, §2

[2] = tested on: CHO-DUX-B11 (dhfr-) cells transfected with pFR400 (pFR400.1); assay: Growth inhibition by MTX, 3 day cell count assay, pFR400 transfected clone; settings: Cricetulus griseus, 72 h; FR400.1 cells (colony from pFR400 transfected dhfr- cells, mutant DHFR 3T6 R400); 3 days, cells counted; read-out: 50 percent inhibition level
Description: as §1, §2

CN(Cc1cnc2nc(N)nc(N)c2n1)c1ccc(C(=O)N[C@@H](CCC(=O)O)C(=O)O)cc1 [MTX, methotrexate]
IC50 [1]: ~3 nM
IC50 (CHO-K1 cells): 20 nM
IC50 [2]: ~3000 nM
